Assay results taken from US4939137A, “Ring-fused thienopyrimidinedione derivatives” (Ortho Pharmaceutical Corporation, priority 1989, dated 1990).

What was measured:
5HT1A receptor = target: T1, 5HT1A receptor (Rattus norvegicus, UniProt P19327); assay: Brain Serotonin 5HT1A Radioreceptor Assay (3H-80H-DPAT); type: binding; conditions: rat frontal cortex membranes, 10 minutes, 37° C., read-out: RECEPTOR BINDING 5HT-1A (IC50)
T1 construct: Membrane fragments were prepared from the frontal cortex dissected from brains obtained from female rats; from tissue; host or cells: frontal cortex, female rats
T1 sequence (P19327 1-422): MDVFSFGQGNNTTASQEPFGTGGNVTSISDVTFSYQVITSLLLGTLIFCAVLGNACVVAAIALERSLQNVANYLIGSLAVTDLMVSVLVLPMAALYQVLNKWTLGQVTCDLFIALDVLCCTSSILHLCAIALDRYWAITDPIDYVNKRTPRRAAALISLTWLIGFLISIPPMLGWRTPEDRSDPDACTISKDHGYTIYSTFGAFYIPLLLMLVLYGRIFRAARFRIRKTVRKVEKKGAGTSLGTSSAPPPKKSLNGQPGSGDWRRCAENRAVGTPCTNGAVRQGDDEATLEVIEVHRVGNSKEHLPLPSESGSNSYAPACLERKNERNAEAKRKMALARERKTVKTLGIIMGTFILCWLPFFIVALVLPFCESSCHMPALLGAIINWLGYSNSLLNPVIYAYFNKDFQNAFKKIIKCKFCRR
Method: Membrane fragments were prepared from the frontal cortex dissected from brains obtained from female rats (~150 g). The 5HT1A sites were labeled with ^3 H-80H-dipropylaminotetralin (^3 H-80H-DPAT). Membrane fragments, ^3 H-80H-DPAT and an unlabeled test compound were incubated for 10 minutes at 37° C. The tubes were then placed in an ice bath for an additional 10 minutes. Compound bound to the receptor site was separated from the remaining unbound compound by vacuum filtration.
The ability of a nonlabeled compound to compete with ^3 H-80H-DPAT for binding sites was a measure of the compound's affinity for the 5HT1A receptor. Specific binding was determined by the difference between total counts bound and counts bound in the presence of 10^-5 M serotonin.
Data are presented at the IC50, the concentration of nonlabeled compound required to displace 50% of the ^3 H-80H-DPAT specifically bound to 5HT1A binding sites.

[1] = system: alpha adrenergic receptor; assay: Alpha-1 Adrenergic Blockage: Inhibition of Phenylephrine-Induced Increases in Blood Pressure in the Anesthetized Dog; type: in vivo; conditions: i.v., phenylephrine 10 μg/kg
Source text: Dogs were anesthetized and bilaterally vagotomized. A femoral artery and vein were cannulated for detection of diastolic blood pressure and drug administration, respectively. Percent inhibition of alpha adrenergic receptor antagonism was quantified by determining dose-response (increase in diastolic pressure) relationship of phenylephrine before and after various doses of the antagonist.

5HT2 receptor = target: T2, 5HT2 receptor (Rattus norvegicus, UniProt P14842); assay: Brain Serotonin 5HT2 Radioreceptor Assay (3H-ketanserin); type: binding; conditions: rat frontal cortex membranes, 15 minutes, 37° C., read-out: RECEPTOR BINDING 5HT-2 (IC50)
T2 construct: Membrane fragments were prepared from the frontal cortex dissected from brains obtained from female rats; from tissue; host or cells: frontal cortex, female rats
T2 sequence (P14842 whole entry, the tested form may be a part): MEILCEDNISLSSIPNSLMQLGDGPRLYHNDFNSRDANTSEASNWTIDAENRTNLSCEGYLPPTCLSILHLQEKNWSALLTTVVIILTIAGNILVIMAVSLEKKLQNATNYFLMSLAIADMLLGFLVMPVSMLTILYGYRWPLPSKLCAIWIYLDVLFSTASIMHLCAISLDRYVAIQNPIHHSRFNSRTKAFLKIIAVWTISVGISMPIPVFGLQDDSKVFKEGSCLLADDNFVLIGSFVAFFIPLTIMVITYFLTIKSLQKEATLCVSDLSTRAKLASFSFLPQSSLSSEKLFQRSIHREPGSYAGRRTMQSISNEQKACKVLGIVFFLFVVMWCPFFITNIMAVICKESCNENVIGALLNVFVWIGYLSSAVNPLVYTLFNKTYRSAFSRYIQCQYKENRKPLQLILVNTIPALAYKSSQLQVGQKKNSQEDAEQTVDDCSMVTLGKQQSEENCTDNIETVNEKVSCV
Method: Membrane fragments were prepared from the frontal cortex dissected from brains obtained from female rats (~150 g). The 5HT2 sites were labeled with ^3 H-ketanserin. Membrane fragments, ^3 H-ketanserin and an unlabeled test compound were incubated for 15 minutes at 37° C. Compound bound to the receptor site was separated from the remaining unbound compound by vacuum filtration.
The ability of a nonlabeled compound to compete with ^3 H-ketanserin for binding sites was a measure of the compound's affinity for the 5HT2 receptor. Specific binding was determined by the difference between total counts bound and counts bound in the presence of 10^-6 M methysergide.
Data are presented as the IC50, the concentration of nonlabeled compound required to displace 50% of the ^3 H-ketanserin specifically bound to 5HT2 binding sites.

[2] = target: alpha-1 adrenergic receptor; assay: Brain Alpha-1 Radioreceptor Assay (3H-prazosin); conditions: guinea pig brain membranes, 30 minutes, 30° C., read-out: RECEPTOR BINDING ALPHA-1 (IC50)
Method: Membrane fragments were prepared from the brains of mature female guinea pigs after removal of the corpus striata. The alpha-1 adrenergic receptor sites were labeled with ^3 H-prazosin. Membrane fragments, ^3 H-prazosin and an unlabeled test compound were incubated for 30 minutes at 30° C. Compound bound to the receptor site was separated from the remaining unbound radioligand by vacuum filtration. Specific binding was determined by the difference between total counts bound and counts bound in the presence of 10-^5 M phentolamine.

[3] = system: spontaneously hypertensive rats (SHR); assay: Antihypertensive Activity: Spontaneously Hypertensive Rat (SHR test); type: in vivo, rat (male spontaneously hypertensive); conditions: p.o. or i.v.; for SHR TEST: change in mean arterial blood pressure: dose 2.5 mpk; for change in vivo at 5 mg/kg: Rattus norvegicus, dose 5 mpk, read-out: SHR TEST: change in blood pressure (delta % of control)
Method: Mean arterial pressure and heart rate were monitored from directly cannulated animals. Compounds were administered p.o. or i.v. and blood pressure was recorded for various time intervals post dosing.
Blood pressure changes (expressed as change in control pressure and reported as delta % of control for each animal) were analyzed statistically using a one way analysis of variance with a Dunnett's test. P values less than 0.05 were considered significant.

Structure (SMILES) | IC50 (5HT1A receptor) [nM] | % INHIB OF PHENYLEPHRINE RESPONSE ([1]; dose 0.03 mpk) [%] | IC50 (5HT2 receptor) [nM] | IC50 [2] [nM] | SHR TEST: change in mean arterial blood pressure [3] [mm Hg] | change in vivo at 5 mg/kg [3] [%] | % INHIB OF PHENYLEPHRINE RESPONSE ([1]; dose 0.003 mpk) [%]
COc1ccccc1N1CCN(CCn2c(=O)c3csc4c3n(c2=O)CCC4=O)CC1 [Example 1, 3,4,5,7,8,9-Hexahydro-4-[2-[4-(2-methoxyphenyl)piperazin-1-yl]ethyl]thieno[4,3,2-de]pyrido[1,2c]pyrimidine-3,5,9-trione] | 25 | 86 | 6500 | 18 | -59 | – | –
Cc1ccccc1N1CCN(CCn2c(=O)c3csc4c3n(c2=O)CCC4=O)CC1 [Example 2, 3,4,5,7,8,9-Hexahydro-4-[2-[4-(2-methylphenyl)piperazin-1-yl]ethyl]thieno[4,3,2-de]pyrido[1,2-c]pyrimidine-3,5,9-trione] | – | 83 | – | – | – | -33 | –
O=C1CCn2c(=O)n(CCN3CCN(c4ccccc4Cl)CC3)c(=O)c3csc1c32 [Example 3, 4-[2-[4-(2-Chlorophenyl)piperazin-1-yl]ethyl]3,4,5,7,8,9-hexahydrothieno[4,3,2-de]pyrido[1,2-c]pyrimidine-3,5,9-trione] | – | 55 | – | – | – | – | –
O=C1CCn2c(=O)n(CCN3CCN(c4ccccc4)CC3)c(=O)c3csc1c32 [Example 4, 3,4,5,7,8,9-Hexahydro-4-[2-(4-phenylpiperazin-1-yl)ethyl]thieno[4,3,2-de]pyrido[1,2-c]pyrimidine-3,5,9-trione] | – | 88 | – | – | – | – | –
COc1cccc(N2CCN(CCn3c(=O)c4csc5c4n(c3=O)CCC5=O)CC2)c1 [Example 5, 3,4,5,7,8,9-Hexahydro-4-[2-[4-(3-methoxyphenyl)piperazin-1-yl]ethyl]thieno[4,3,2-de]pyrido[1,2-c]pyrimidine-3,5,9-trione] | – | 41 | – | – | – | – | –
COc1ccc(N2CCN(CCn3c(=O)c4csc5c4n(c3=O)CCC5=O)CC2)cc1 [Example 8, 3,4,5,7,8,9-Hexahydro-4-[2-[4-(4-methoxyphenyl)piperazin-1-yl]ethyl]thieno[4,3,2-de]pyrido[1,2-c]pyrimidine-3,5,9-trione] | – | 40 | – | – | – | – | –
COc1ccccc1N1CCN(CCn2c(=O)c3c(C)sc4c3n(c2=O)CCC4=O)CC1 [Example 13, 3,4,5,7,8,9-Hexahydro-2-methyl-4-[2-[4-(2-methoxyphenyl)piperazin-1-yl]ethyl]thieno[4,3,2-de]pyrido[1,2-c]pyrimidine-3,5,9-trione] | – | 88 | – | – | – | – | –
COc1ccccc1N1CCN(CCn2c(=O)c3csc4c3n(c2=O)CCC4O)CC1 (stereo not shown) [Example 21, 3,4,5,7,8,9-Hexahydro-9-hydroxy-4-[2-[4-(2-methoxyphenyl)piperazin-1-yl]ethyl]thieno[4,3,2-de]pyrido[1,2-c]pyrimidine-3,5-dione] | – | 96 | – | – | – | -24.7 | –
COc1ccccc1N1CCN(CCn2c(=O)c3csc4c3n(c2=O)CC=C4)CC1 [Example 24, 3,4,5,7-Tetrahydro-4-[2-[4-(2-methoxyphenyl)piperazin-1-yl]ethyl]thieno[4,3,2-de]pyrido[1,2-c]pyrimidine-3,5-dione] | 120 | 98 | 2000 | 23 | -59.0 | – | –
COc1ccccc1N1CCN(CCn2c(=O)c3csc4c3n(c2=O)CCNC4=O)CC1 [Example 25] | 48 | – | 2000 | 45 | -58.0 | – | 94
CON=C1CCn2c(=O)n(CCN3CCN(c4ccccc4OC)CC3)c(=O)c3csc1c32 [Example 26, 3,4,5,7,8,9-Hexahydro-9-methoxyimino-4-[2-[4-(2-methoxyphenyl)piperazin-1-yl]ethyl]-thieno[4,3,2-de]pyrido[1,2-c]pyrimidine-3,5-dione] | 0.72 | 72 | 2000 | 40 | – | – | –
COc1ccccc1N1CCN(CCn2c(=O)c3csc4c3n(c2=O)CCC4OC(C)=O)CC1 (stereo not shown) [Example 30, 9-Acetyloxy-3,4,5,7,8,9-hexahydro-4-[2-[4-(2-methoxyphenyl)piperazin-1-yl]ethyl]thieno[4,3,2-de]pyrido[1,2-c]pyrimidine-3,5-dione] | – | 100 | – | – | – | -33.2 | –
CCCC(=O)OC1CCn2c(=O)n(CCN3CCN(c4ccccc4OC)CC3)c(=O)c3csc1c32 (stereo not shown) [Example 31] | – | 100 | – | – | – | – | –
CCCCCC(=O)OC1CCn2c(=O)n(CCN3CCN(c4ccccc4OC)CC3)c(=O)c3csc1c32 (stereo not shown) [Example 32, 3,4,5,7,8,9-Hexahydro-4-[2-[4-(2-methoxyphenyl)piperazin-1-yl]ethyl]-9-(hexanoyloxy)thieno[4,3,2-de]pyrido[1,2-c]pyrimidine-3,5-dione] | – | 90 | – | – | – | – | –
COc1ccccc1N1CCN(CCn2c(=O)c3csc4c3n(c2=O)CCC4OC(=O)c2ccccc2)CC1 (stereo not shown) [Example 35, 9-Benzoyloxy-3,4,5,7,8,9-hexahydro-4-[2-[4-(2-methoxyphenyl)piperazin-1-yl]ethyl]thieno[4,3,2-de]pyrido[1,2-c]pyrimidine-3,5-dione] | 130 | 89 | 1500 | 0.015 | – | -16.6 | –
